Assay [1] addresses T1, Ftu-1 β-lactamase (Francisella tularensis, UniProt Q5NH60). The class given is biochemical.
Assay [2] concerns the target T1, Ftu-1 β-lactamase. To be noted: cited from earlier work.
Assay [3] has as its target T1, Ftu-1 β-lactamase. The assay is described as follows: biochemical.

Values joined by “and” are separate entries in the source; they are usually repeats but may differ in a detail not shown here. Equal values may be shown once. Read-outs that look alike come from different tables or passages of the source.

T1 sequence (Q5NH60 1-287): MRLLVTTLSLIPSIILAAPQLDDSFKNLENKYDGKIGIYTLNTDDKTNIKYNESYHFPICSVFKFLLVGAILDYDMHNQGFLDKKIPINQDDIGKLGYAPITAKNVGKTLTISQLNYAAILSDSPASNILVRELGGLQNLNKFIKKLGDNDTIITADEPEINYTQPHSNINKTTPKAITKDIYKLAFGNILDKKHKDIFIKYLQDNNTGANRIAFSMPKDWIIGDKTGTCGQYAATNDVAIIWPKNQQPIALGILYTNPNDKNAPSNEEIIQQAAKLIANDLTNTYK

`O=C(Cc1cccs1)N[C@@H]1C(=O)N2C(C(=O)O)=C(CSc3ccc([N+](=O)[O-])c(C(=O)O)c3)CS[C@H]12` [CENTA]: the Km (commonly the concentration of substrate that gives half-maximal velocity) in assay [1] (pH 4.8) was determined as 655 ± 37.1 µM; in assay [1] (pH 7.6) it was 128 ± 57 µM; in assay [1] (pH 8.5), 228 ± 11.1 µM; in assay [1] (pH 10.5) it was 218 ± 30.8 µM. The Vmax (commonly the top rate of the reaction or transport when substrate is in excess) in assay [1] (pH 4.8) was 1.001 ± 0.005 µM/min; in assay [1] (pH 5.8), 13.12 ± 0.62 µM/min; in assay [1] (pH 6.4), 24.8 ± 0.9 µM/min; in assay [1] (pH 7.2), 30.5 ± 0.5 µM/min; in assay [1] (pH 7.6), 49.51 ± 15.84 µM/min. Moreover, the kcat is on record as 101 ± 1 min^–1 in assay [1] (pH 4.8); 1312.75 ± 62.75 min^–1 in assay [1] (pH 5.8); 4951.67 ± 1583 min^–1 in assay [1] (pH 7.6); 38.96 ± 11.2 min^–1 in assay [1] (pH 9.5); 8.85 ± 0.15 min^–1 in assay [1] (pH 10.5).

As to `C[C@H]1[C@H](NC(=O)/C(=N\OC(C)(C)C(=O)O)c2csc(N)n2)C(=O)N1S(=O)(=O)O` [aztreonam], in assay [2], the “hydrolysis in the presence of Ftu-1” value is “unhydrolyzed”.

Regarding `CO[C@@]1(NC(=O)Cc2cccs2)C(=O)N2C(C(=O)O)=C(COC(N)=O)CS[C@@H]21` [cefoxitin], the “hydrolysis in the presence of Ftu-1” value in assay [2] is on record as “unhydrolyzed”.

On to `CC(C)(O/N=C(\C(=O)N[C@@H]1C(=O)N2C(C(=O)[O-])=C(C[n+]3ccccc3)CS[C@H]12)c1csc(N)n1)C(=O)O` [ceftazidime], for which, in assay [2], the kcat is on record as 0.022 ± 0.001 S^–1.

`CO/N=C(\C(=O)N[C@@H]1C(=O)N2C(C(=O)O)=C(COC(N)=O)CS[C@H]12)c1ccco1` [cefuroxime]: the Km in assay [2] was 14 ± 2 µM.

As for `O=C(O)[C@H]1/C(=C/CO)O[C@@H]2CC(=O)N21` [clavulanic acid], the Ki (in general, a dissociation constant, usually derived from enzyme kinetics or from competition with a known ligand) in assay [3] was determined as 30.7 µM.

As for `C[C@@H](O)[C@H]1C(=O)N2C(C(=O)O)=C(SCCN=CN)C[C@H]12` [imipenem], in assay [2], the Km is 31 ± 4 µM and the kcat is listed as 0.017 ± 0.001 S^–1. In assay [3], this compound came in with a Ki of 73.8 µM.

`C[C@@H](O)[C@H]1C(=O)N2C(C(=O)O)=C(S[C@@H]3CN[C@H](C(=O)N(C)C)C3)[C@H](C)[C@H]12` [meropenem]: the affinity in assay [3], expressed as Ki, was 1.53 µM.

`CC1(C)[C@H](C(=O)O)N2C(=O)C[C@H]2S1(=O)=O` [sulbactam] had a Ki in assay [3] of 21.1 µM. This Ki is about 14-fold higher than that of the compound before.

For `C[C@]1(Cn2ccnn2)[C@H](C(=O)O)N2C(=O)C[C@H]2S1(=O)=O` [tazobactam], the Ki in assay [3] is 1.19 µM and 1.2 µM.

Source of the values: publication PMC10125328 (ACS Bio & Med Chem Au, 2023).
